Reference: US8575186B2, “Epiminocycloalkyl[b] indole derivatives as serotonin sub-type 6 (5-HT6) modulators and uses thereof” (Albany Molecular Research, Inc., priority 2009, dated 2013)
Structures can show the parent of a compound that is named as a salt. Where two headings read alike, the source gives them in different places.

Target: human 5-HT6 receptor (Homo sapiens (Human), UniProt P50406)
Assay: radioligand binding assay (SPA format), [N-methyl-3H]-LSD
Conditions: human 5-HT6 receptor membranes, 10 nM [3H]-LSD

human 5-HT6 receptor, sequence (P50406 whole entry): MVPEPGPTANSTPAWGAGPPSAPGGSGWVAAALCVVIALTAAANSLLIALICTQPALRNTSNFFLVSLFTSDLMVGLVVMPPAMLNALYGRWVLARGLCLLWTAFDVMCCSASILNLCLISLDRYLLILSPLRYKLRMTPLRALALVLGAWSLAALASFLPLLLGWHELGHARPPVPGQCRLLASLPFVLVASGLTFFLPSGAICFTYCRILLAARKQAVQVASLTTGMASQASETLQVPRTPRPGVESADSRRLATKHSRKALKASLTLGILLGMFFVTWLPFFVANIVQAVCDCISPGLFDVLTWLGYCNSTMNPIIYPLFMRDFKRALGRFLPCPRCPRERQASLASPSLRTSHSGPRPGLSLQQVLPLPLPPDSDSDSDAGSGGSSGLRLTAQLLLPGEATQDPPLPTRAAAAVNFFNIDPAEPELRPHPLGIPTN

SMILES | Ki (read-out: human 5HT6 Ki) [nM] | Ki (human 5HT6 Ki) [nM]
Cn1c2c(c3cc(S(=O)(=O)c4ccc5sccc5c4)ccc31)C1CCC(C2)N1 (stereo not shown) [Example 168] | 3.3 | 
Cn1c2c(c3cc(S(=O)(=O)n4ccc5ncccc54)ccc31)C1CCC(C2)N1 (stereo not shown) [Example 107] | 78 | 
COc1cc(S(=O)(=O)c2cccc(OC(F)F)c2)cc2c3c(n(C)c12)CC1CCC3N1 (stereo not shown) [Example 214] | 3 | 
Cn1c2c(c3cc(S(=O)(=O)c4ccc5[nH]ccc5c4)ccc31)C1CCC(C2)N1Cc1ccccc1 (stereo not shown) [Example 137] | 1.2 | 
CCOc1cc(S(=O)(=O)c2ccccc2)cc2c3c(n(C)c12)CC1CCC3N1 (stereo not shown) [Example 235] | 0.42 | 
Cn1c2c(c3cc(S(=O)(=O)c4cccc5cccnc45)ccc31)C1CCC(C2)N1 (stereo not shown) [Example 170] | 17 | 
Cn1c2c(c3cc(S(=O)(=O)c4csc5ccccc45)cc(F)c31)C1CCC(C2)N1 (stereo not shown) [Example 139] | 0.47 | 
COc1cc(S(=O)(=O)c2cccc(-n3cccn3)c2)cc2c3c(n(C)c12)CC1CCC3N1 (stereo not shown) [Example 247] | 1.5 | 
Cn1c2c(c3cc(S(=O)(=O)c4ccccc4)cc(OCc4ccccn4)c31)C1CCC(C2)N1 (stereo not shown) [Example 154] | 80 | 
COc1cc(S(=O)(=O)n2ccc3ccccc32)cc2c3c(n(C)c12)CC1CCC3N1 (stereo not shown) [Example 241] | 0.35 | 
Cn1c2c(c3cc(S(=O)(=O)c4cn(-c5ccccc5)c5ccccc45)ccc31)C1CCC(C2)N1 (stereo not shown) [Example 103] | 9.3 | 
Cn1c2c(c3cc(S(=O)(=O)c4ccccc4F)cc(O)c31)C1CCC(C2)N1 (stereo not shown) [Example 210] | 1 | 
Cn1c2c(c3cc(S(=O)(=O)c4ccc5sccc5c4)ccc31)C1CCC(C2)N1 (stereo not shown) [Example 167] | 7.5 | 
CCN1C2CCC1c1c(n(C)c3ccc(S(=O)(=O)c4ccc5[nH]ccc5c4)cc13)C2 (stereo not shown) [Example 186] | 0.77 | 
CCN1C2CCC1c1c(n(C)c3ccc(S(=O)(=O)c4ccc5[nH]ccc5c4)cc13)C2 (stereo not shown) [Example 185] | 1.5 | 
COc1cc(S(=O)(=O)n2cc(C#N)c3ccccc32)cc2c3c(n(C)c12)CC1CCC3N1 (stereo not shown) [Example 149] | 1.2 | 
CN1C2CCC1c1c(n(C)c3ccc(S(=O)(=O)c4ccc5[nH]ccc5c4)cc13)C2 (stereo not shown) [Example 184] | 0.35 | 
Cn1c2c(c3cc(S(=O)(=O)c4ccccc4)cc(C#N)c31)C1CCC(C2)N1 (stereo not shown) [Example 142] | 115 | 
Cn1c2c(c3cc(S(=O)(=O)c4ccccc4F)cc(O)c31)C1CCC(C2)N1 (stereo not shown) [Example 211] | 1.6 | 
COCCN1C2CCC1c1c(n(C)c3ccc(S(=O)(=O)c4ccc5[nH]ccc5c4)cc13)C2 (stereo not shown) [Example 136] | 1.4 | 
Cn1c2c(c3cc(S(=O)(=O)c4ccc5[nH]ccc5c4)ccc31)C1CCC(C2)N1CCO (stereo not shown) [Example 138] | 1.2 | 
COc1cc(S(=O)(=O)c2cccc(C(F)(F)F)c2)cc2c3c(n(C)c12)CC1CCC3N1 (stereo not shown) [Example 216] |  | 0.8
Cn1c2c(c3cc(S(=O)(=O)n4cc(F)c5ccccc54)ccc31)C1CCC(C2)N1 (stereo not shown) [Example 129] | 2.7 | 
Cn1c2c(c3cc(S(=O)(=O)n4ccc5c(F)cccc54)ccc31)C1CCC(C2)N1 (stereo not shown) [Example 64, 2-[1-(4-Fluoro)-indole]sulfonyl-5-methyl-5,6,7,8,9,10-hexahydro-7,10-epiminocyclohepta[b]indole hydrochloride] | 5.6 | 
Cn1c2c(c3cc(S(=O)(=O)c4ccc5c(ccn5CCO)c4)ccc31)C1CCC(C2)N1 (stereo not shown) [Example 119] | 228 | 

SMILES | Ki (read-out: human 5HT6 Ki) [nM] | Ki (human 5HT6 Ki) [nM]
COc1cc(S(=O)(=O)c2cccc(F)c2)cc2c3c(n(C)c12)CC1CCC3N1 (stereo not shown) [Example 222] | 0.56 | 
COc1cc(S(=O)(=O)c2cccc(-n3cccn3)c2)cc2c3c(n(C)c12)CC1CCC3N1 (stereo not shown) [Example 246] | 10 | 
Cn1c2c(c3cc(S(=O)(=O)c4cccc5cc[nH]c45)ccc31)C1CCC(C2)N1 (stereo not shown) [Example 99] | 4.5 | 
Cn1c2c(c3cc(S(=O)(=O)c4cccc(OCc5ccccc5)c4)ccc31)C1CCC(C2)N1 (stereo not shown) [Example 121] | 1.9 | 
COc1cc(S(=O)(=O)n2ncc3ccccc32)cc2c3c(n(C)c12)CC1CCC3N1 (stereo not shown) [Example 148] | 1.3 | 
COc1cc(S(=O)(=O)c2cn(C)c3ccccc23)cc2c3c(n(C)c12)CC1CCC3N1 (stereo not shown) [Example 223] | 2.4 | 
COCCn1ccc2cc(S(=O)(=O)c3ccc4c(c3)c3c(n4C)CC4CCC3N4)ccc21 (stereo not shown) [Example 120] | 64 | 
COc1cc(S(=O)(=O)c2cn(C)c3ccccc23)cc2c3c(n(C)c12)CC1CCC3N1 (stereo not shown) [Example 224] | 0.99 | 
Cn1c2c(c3cc(S(=O)(=O)c4cccc5cccnc45)ccc31)C1CCC(C2)N1 (stereo not shown) [Example 169] | 27 | 
Cn1c2c(c3cc(S(=O)(=O)c4ccccc4)ccc31)C1CCCC(C2)N1 (stereo not shown) [Example 92, 2-(Phenylsulfonyl)-5-methyl-6,7,8,9,10,11-hexahydro-5H-7,11-epiminocycloocta[b]indole hydrochloride] | 150 | 
Cc1cc(S(=O)(=O)c2csc3ccccc23)cc2c3c(n(C)c12)CC1CCC3N1 (stereo not shown) [Example 141] | 0.29 | 
Cn1c2c(c3cc(S(=O)(=O)c4cccc(Cl)c4)ccc31)C1CCC(C2)N1 (stereo not shown) [Example 157] | 2.7 | 
CN1C2CCC1c1c(n(C)c3ccc(S(=O)(=O)c4ccccc4)cc13)C2 (stereo not shown) [Example 69, 2-Phenylsulfonyl-5-methyl-5,6,7,8,9,10-hexahydro-7,10-N-methyl-epiminocyclohepta[b]indole hydrochloride] | 7.8 | 
COc1cc(S(=O)(=O)c2cncc3ccccc23)cc2c3c(n(C)c12)CC1CCC3N1 (stereo not shown) [Example 233] | 3.7 | 
Cn1c2c(c3cc(S(=O)(=O)c4cccc(-n5cccn5)c4)ccc31)C1CCC(C2)N1 (stereo not shown) [Example 244] | 14 | 
Cn1c2c(c3cc(S(=O)(=O)c4ccccc4Cl)ccc31)C1CCC(C2)N1 (stereo not shown) [Example 115] | 4.8 | 
Cn1c2c(c3cc(S(=O)(=O)c4cccc5ncccc45)ccc31)C1CCC(C2)N1 (stereo not shown) [Example 110] | 148 | 
Cc1cn(S(=O)(=O)c2ccc3c(c2)c2c(n3C)CC3CCC2N3)c2ccccc12 (stereo not shown) [Example 201] | 1.4 | 
Cn1c2c(c3cc(S(=O)(=O)n4ccc5ccc(C#N)cc54)ccc31)C1CCC(C2)N1 (stereo not shown) [Example 127] | 1.5 | 
COc1cc(S(=O)(=O)c2cccc(Cl)c2)cc2c3c(n(C)c12)CC1CCC3N1C (stereo not shown) [Example 225] | 0.53 | 
Cn1c2c(c3cc(S(=O)(=O)c4ccc5cc[nH]c5c4)ccc31)C1CCC(C2)N1 (stereo not shown) [Example 95] | 5.8 | 
CCc1cc(S(=O)(=O)c2ccccc2)cc2c3c(n(C)c12)CC1CCC3N1 (stereo not shown) [Example 80, 2-Phenylsulfonyl-4-ethyl-5-methyl-5,6,7,8,9,10-hexahydro-7,10-epiminocyclohepta[b]indole hydrochloride] | 17 | 
Cn1c2c(c3cc(S(=O)(=O)n4ccc5cc(Cl)ccc54)ccc31)C1CCC(C2)N1 (stereo not shown) [Example 196] | 1.2 | 
Cn1c2c(c3cc(S(=O)(=O)c4cccc(OCc5ccncc5)c4)ccc31)C1CCC(C2)N1 (stereo not shown) [Example 133] | 11 | 
Cn1c2c(c3cc(S(=O)(=O)c4cccc(C(F)(F)F)c4)cc(O)c31)C1CCC(C2)N1 (stereo not shown) [Example 209] | 0.53 | 

SMILES | Ki (read-out: human 5HT6 Ki) [nM] | Ki (human 5HT6 Ki) [nM]
CN1C2CCC1c1c(n(C)c3ccc(S(=O)(=O)c4ccc5[nH]ccc5c4)cc13)C2 (stereo not shown) [Example 134] | 0.26 | 
Cn1c2c(c3cc(S(=O)(=O)c4ccc(C#N)cc4)ccc31)C1CCC(C2)N1 (stereo not shown) [Example 178] | 454 | 
Cn1cc(S(=O)(=O)c2ccc3c(c2)c2c(n3C)CC3CCC2N3)c2ccccc21 (stereo not shown) [Example 165] | 0.81 | 
Cc1cc(S(=O)(=O)c2cn(C)c3ccccc23)cc2c3c(n(C)c12)CC1CCC3N1 (stereo not shown) [Example 140] | 0.56 | 
Cn1c2c(c3cc(S(=O)(=O)c4cnc5[nH]ccc5c4)ccc31)C1CCC(C2)N1 (stereo not shown) [Example 101] | 2.9 | 
COc1cc(S(=O)(=O)c2cccc(OCc3ccccc3)c2)cc2c3c(n(C)c12)CC1CCC3N1 (stereo not shown) [Example 147] | 1.4 | 
COc1cc(S(=O)(=O)n2ccc3ccccc32)cc2c3c(n(C)c12)CC1CCC3N1 (stereo not shown) [Example 240] | 0.85 | 
Cn1c2c(c3cc(S(=O)(=O)n4ccc5cc(Cl)ccc54)ccc31)C1CCC(C2)N1 (stereo not shown) [Example 195] | 4.6 | 
CC(C)N1C2CCC1c1c(n(C)c3ccc(S(=O)(=O)c4ccc5[nH]ccc5c4)cc13)C2 (stereo not shown) [Example 135] | 3.2 | 
Cn1c2c(c3cc(S(=O)(=O)c4ccccc4F)ccc31)C1CCC(C2)N1 (stereo not shown) [Example 112] | 4.6 | 
Cn1c2c(c3cc(S(=O)(=O)c4ccc5occc5c4)ccc31)C1CCC(C2)N1 (stereo not shown) [Example 116] | 20 | 
CN(C)C(=O)COc1cc(S(=O)(=O)c2ccccc2)cc2c3c(n(C)c12)CC1CCC3N1 (stereo not shown) [Example 153] | 581 | 
Cn1c2c(c3cc(S(=O)(=O)c4cccc5cnccc45)ccc31)C1CCC(C2)N1 (stereo not shown) [Example 111] | 22 | 
CC(C)n1c2c(c3cc(S(=O)(=O)c4ccccc4)ccc31)C1CCC(C2)N1 (stereo not shown) [Example 182] | 365 | 
Cn1c2c(c3cc(S(=O)(=O)c4ccccc4)cc(OC(F)(F)F)c31)C1CCC(C2)N1 (stereo not shown) [Example 150] | 70 | 
Cn1c2c(c3cc(S(=O)(=O)c4cccc5cccnc45)ccc31)C1CCC(C2)N1 (stereo not shown) [Example 113] | 23 | 
Cn1c2c(c3cc(S(=O)(=O)c4cccc(-n5cccn5)c4)ccc31)C1CCC(C2)N1 (stereo not shown) [Example 245] | 9 | 
Cn1c2c(c3cc(S(=O)(=O)n4ccc5ccc(C#N)cc54)ccc31)C1CCC(C2)N1 (stereo not shown) [Example 199] |  | 1.8
Cc1cc2ccccc2n1S(=O)(=O)c1ccc2c(c1)c1c(n2C)CC2CCC1N2 (stereo not shown) [Example 126] | 7.2 | 
Cn1c2c(c3cc(S(=O)(=O)c4ccnc5ccccc45)ccc31)C1CCC(C2)N1 (stereo not shown) [Example 132] | 39 | 
CN(C)Cc1ccc(S(=O)(=O)c2ccc3c(c2)c2c(n3C)CC3CCC2N3)cc1 (stereo not shown) [Example 34, 2-[4-(N,N-Dimethylaminomethyl)phenyl]sulfonyl-5-methyl-5,6,7,8,9,10-hexahydro-7,10-epiminocyclohepta[b]indole dihydrochloride] | 4.8 | 
Cn1c2c(c3cc(S(=O)(=O)c4cc(F)c5[nH]ccc5c4)ccc31)C1CCC(C2)N1 (stereo not shown) [Example 124] | 0.33 | 
Cn1cc(S(=O)(=O)c2ccc3c(c2)c2c(n3C)CC3CCC2N3)c2ccccc21 (stereo not shown) [Example 166] | 0.41 | 
